The structures appear in SMILES notation.

In one series the target is c-Kit (Homo sapiens, UniProt P10721). The conditions noted are these: cited from earlier work.
Series [1] has as its system multiple tumor cell models. The note with it: cited from earlier work.
For series [2] the following is noted: cited from earlier work.
For series [3] the following is noted: low dose (10 mg·kg^−1), solution; cited from earlier work.
For another series, the target named is c-Met (Homo sapiens, UniProt P08581). The note with it: cited from earlier work.
For series [4], the system named is MKN-45 gastric cancer cells. Description: Gastric cancer cell MKN45 xenograft model. The conditions noted are these: oral 100 mg·kg^−1 once a day for 14 days. Type of series: in vivo, nude mice. The text has this:
• 1. Compounds (td32-4, td32-4P3, td32-4P6, td32-4P9, td32-4P10) were selected for in vivo activity evaluation at a single concentration. The animal model was gastric cancer cell MKN45 xenograft model.
(§1) Test method: 5×10^6 MKN-45 gastric cancer cells were inoculated under the fat pad of the right rib of nude mice, and the tumor formation was observed. Two weeks after the inoculation, the tumor-bearing mice were divided into groups and orally administered with td32-4, td32-4P3, td32-4P6, td32-4P9, and td32-4P10 at a dose of 100 mg·kg^−1, once a day for 14 days, respectively. Tumor volumes were measured with a caliper and recorded.

A further series concerns VEGFR. The note with it: cited from earlier work.
Series [5] in a line: Solubility test (water), Chinese Pharmacopoeia 2015. In kind it is physicochemical. The conditions noted are these: 25° C.±2° C., dissolution within 30 minutes. As to the method:
The series of compounds synthesized in Examples 1-24 were subjected to solubility test (water), according to the solubility test methods in Chinese Pharmacopoeia, 2015 Edition. The specific test operations and evaluation criteria are as follows: An appropriate amount (1 mg-10 mg) of finely powdered compound was weighed, placed in a certain volume of solvent at 25° C.±2° C., and shaken vigorously for 30 seconds every 5 minutes; the dissolution within 30 minutes was observed. It was considered completely dissolved if there were no visible particles or droplets of the solute. [table]

Series [6] can be described thus: In vivo transformation / pharmacokinetic study in SD rats. The conditions noted are these: for time to almost complete conversion into td32-4 in vivo: oral 200 mg·kg^−1. From the text: The compounds of the present invention have improved solubility by introducing a hydrophilic functional group into the structure of td32-4 through an ester bond. After oral administration, the compounds need to be converted into td32-4 in the physical and chemical environment in vivo to exert pharmacological effects. In this example, some representative compounds were selected for in vivo pharmacokinetic studies in SD rats, and compared with direct oral administration of td32-4. The experiment was performed at high (200 mg·kg^−1) and low (10 mg·kg^−1) doses. 5 mg of the test sample was placed into a glass bottle. 1 mL of DMA (dimethylacetamide) was added and vortexed to dissolve the solid completely. 1.5 mL of PEG400 was added, vortexed and mixed well. 2.5 mL of physiological saline for injection was added, vortexed, mixed well. The mixture was filtered with a filter membrane (PALL, Nylon, 0.45 μm) to obtain a colorless and clear solution. The test sample was administered to experimental animals (n=3) by tail vein injection at a dose of 5 mg·kg^−1 (1 mg·mL^−1). An appropriate amount of the test sample was placed into a glass bottle. PEG400 was added, vortexed and mixed well. The mixture was sonicated to obtain a clear solution. The test sample was administered to experimental animals (n=3) by gavage at a dose of 10 mg·kg^−1 and 200 mg·kg^−1, respectively. SD rats were weighed before administration, and the dose was calculated according to the body weight. They were administered by intravenous injection or by gavage. Blood was collected through the submandibular vein or other suitable ways, at intervals of 0, 0.083, 0.25, 0.5, 1, 2, 4, 8, 12, 24 hours. About 0.20 mL of each sample was collected, anticoagulated with EDTA-K2, and placed on ice after collection, and centrifuged within 1 hour to separate plasma (centrifugation conditions: 6800 g, 6 minutes, 2-8° C.). Plasma samples were stored in a −80° C. freezer prior to analysis. The blood drug concentration of each sample was analyzed using LC-MS/MS. […]

A further series deals with H358. The series can be described thus: H358 nude mouse xenograft model. In kind it is in vivo. The note with it: 50 mg/kg * 21 d, i.g, QD. How it is done:
as §1
(§2) The compound td32-4P10 was selected for in vivo activity evaluation. The tumor inhibitory activity data of td32-4P10 were tested in MV-4-11, H358 and H82 nude mouse xenograft model, respectively. Meanwhile, the changes in tumor volume during the treatment, and the changes in body weight of the nude mice induced by the drug during the treatment were measured. After the treatment, the tumor weights were counted. The tumor anatomical images after the treatment were recorded.

The next series has as its system MV-4-11. The series can be described thus: MV-4-11 nude mouse xenograft model. In kind it is in vivo. The note with it: MV-4-11 xenograft, 50 mg/kg * 21 d, i.g, QD. How it is done:
as §1, §2

The next series deals with H82. Description: H82 nude mouse xenograft model. Type of series: in vivo. The note with it: 50 mg/kg * 14 d, i.g, QD. How it is done:
as §1, §2

Sequence of c-Met (P08581 25-1390): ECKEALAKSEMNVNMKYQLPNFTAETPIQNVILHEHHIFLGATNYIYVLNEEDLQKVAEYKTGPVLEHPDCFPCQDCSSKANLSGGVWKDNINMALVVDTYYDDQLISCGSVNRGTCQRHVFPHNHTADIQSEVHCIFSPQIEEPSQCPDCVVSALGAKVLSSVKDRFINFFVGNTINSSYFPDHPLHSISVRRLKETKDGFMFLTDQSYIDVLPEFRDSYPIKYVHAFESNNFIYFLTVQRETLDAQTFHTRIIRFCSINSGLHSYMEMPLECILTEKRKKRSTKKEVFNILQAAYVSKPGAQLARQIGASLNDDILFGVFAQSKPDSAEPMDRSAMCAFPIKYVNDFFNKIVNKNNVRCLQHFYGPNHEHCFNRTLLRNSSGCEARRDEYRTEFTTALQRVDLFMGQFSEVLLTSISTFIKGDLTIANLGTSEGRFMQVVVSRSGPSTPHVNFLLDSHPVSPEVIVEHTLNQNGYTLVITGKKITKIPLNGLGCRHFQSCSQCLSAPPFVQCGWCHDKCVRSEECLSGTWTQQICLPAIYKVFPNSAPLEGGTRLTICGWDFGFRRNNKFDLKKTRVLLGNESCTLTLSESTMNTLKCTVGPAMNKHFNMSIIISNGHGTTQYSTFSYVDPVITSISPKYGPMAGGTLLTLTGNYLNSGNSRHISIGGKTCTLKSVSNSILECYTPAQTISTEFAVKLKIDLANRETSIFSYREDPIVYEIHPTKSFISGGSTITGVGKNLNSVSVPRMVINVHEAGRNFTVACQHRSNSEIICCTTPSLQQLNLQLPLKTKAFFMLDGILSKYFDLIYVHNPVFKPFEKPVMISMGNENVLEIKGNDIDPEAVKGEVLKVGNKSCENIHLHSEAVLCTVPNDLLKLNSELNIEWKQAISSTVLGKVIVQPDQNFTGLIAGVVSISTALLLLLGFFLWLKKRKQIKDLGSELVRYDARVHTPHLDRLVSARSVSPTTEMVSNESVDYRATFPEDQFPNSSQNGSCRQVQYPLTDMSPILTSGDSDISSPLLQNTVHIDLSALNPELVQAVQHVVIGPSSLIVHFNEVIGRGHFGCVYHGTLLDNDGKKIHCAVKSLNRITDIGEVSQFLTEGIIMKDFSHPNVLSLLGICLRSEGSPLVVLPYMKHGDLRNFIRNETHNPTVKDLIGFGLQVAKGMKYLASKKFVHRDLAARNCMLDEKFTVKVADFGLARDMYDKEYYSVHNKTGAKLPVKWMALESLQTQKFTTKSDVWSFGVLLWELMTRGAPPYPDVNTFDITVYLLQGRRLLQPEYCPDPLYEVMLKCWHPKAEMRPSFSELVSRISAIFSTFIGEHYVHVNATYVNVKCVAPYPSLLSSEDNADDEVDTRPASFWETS
Sequence of c-Kit (P10721 26-976): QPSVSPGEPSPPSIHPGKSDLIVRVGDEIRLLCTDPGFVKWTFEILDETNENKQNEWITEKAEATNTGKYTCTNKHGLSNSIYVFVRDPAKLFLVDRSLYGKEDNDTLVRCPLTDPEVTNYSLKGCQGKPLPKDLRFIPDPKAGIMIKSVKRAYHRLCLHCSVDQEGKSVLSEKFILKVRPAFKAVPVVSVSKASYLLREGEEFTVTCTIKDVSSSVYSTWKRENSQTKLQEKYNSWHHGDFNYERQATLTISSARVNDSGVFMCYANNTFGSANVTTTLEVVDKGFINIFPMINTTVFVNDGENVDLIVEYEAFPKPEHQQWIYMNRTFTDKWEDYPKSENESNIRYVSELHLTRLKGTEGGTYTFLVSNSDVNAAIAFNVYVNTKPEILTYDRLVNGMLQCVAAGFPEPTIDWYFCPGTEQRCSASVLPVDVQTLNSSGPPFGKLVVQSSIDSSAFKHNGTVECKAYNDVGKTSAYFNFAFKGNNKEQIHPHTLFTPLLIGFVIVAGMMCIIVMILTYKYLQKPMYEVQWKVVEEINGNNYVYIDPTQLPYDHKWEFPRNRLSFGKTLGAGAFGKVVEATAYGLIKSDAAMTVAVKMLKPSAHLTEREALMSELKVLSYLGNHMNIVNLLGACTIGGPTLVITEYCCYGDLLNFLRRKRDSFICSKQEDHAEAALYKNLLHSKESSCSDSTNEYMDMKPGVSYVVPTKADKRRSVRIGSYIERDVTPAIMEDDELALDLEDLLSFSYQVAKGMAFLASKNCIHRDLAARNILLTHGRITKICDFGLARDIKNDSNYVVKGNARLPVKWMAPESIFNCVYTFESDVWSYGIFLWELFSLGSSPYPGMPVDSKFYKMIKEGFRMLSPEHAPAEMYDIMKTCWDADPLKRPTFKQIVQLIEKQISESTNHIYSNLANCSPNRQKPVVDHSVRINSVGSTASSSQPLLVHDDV

On to `O=C(Nc1ccc(F)cc1)C1(C(=O)Nc2ccc(Oc3ccnc4cc(-c5cnn(CCO)c5)sc34)c(F)c2)CC1` [td32-4], for which the inhibitory activity result on c-Kit, at c-Met and in the series with VEGFR was “potent inhibitory activity” each time. Also, the anti-proliferative activity entry in series [1] was “potent anti-proliferative activity”. The water solubility result in series [2] was “extremely poor water solubility”. Further, in series [3], the “oral bioavailability F” value is given as 71.6%. In addition, the “tumor inhibitory effect (tumor volume)” value in series [4] is “did not show significant activity”. In addition, the “Water solubility test Result” value in series [5] is “G (1 g of solute is insoluble in 10000 mL of solvent)”.

With `CN(C)CC(=O)OCCn1cc(-c2cc3nccc(Oc4ccc(NC(=O)C5(C(=O)Nc6ccc(F)cc6)CC5)cc4F)c3s2)cn1` [td32-4P3, 2-(4-(7-(2-fluoro-4-(1-((4-fluorophenyl)carbamoyl)cyclopropane-1-carboxamide)phenoxy)thieno[3,2-b]pyridin-2-yl)-1H-pyrazolyl-1-yl)ethyldimethyl glycinate], the “tumor inhibitory effect (tumor volume)” value in series [4] is “potent tumor inhibitory effect”. Also, the “Water solubility test Result” value in series [5] is recorded as “C (1 g of solute is soluble in 10~30 mL of sovent)”. In addition, the “conversion into td32-4 in vivo” value in series [6] (oral 10 mg·kg^−1) was “rapidly converted”. Also, in [6], the “time to almost complete conversion into td32-4 in vivo” value was not above 18 h.

For the molecule `CC(C)C(N)C(=O)OCCn1cc(-c2cc3nccc(Oc4ccc(NC(=O)C5(C(=O)Nc6ccc(F)cc6)CC5)cc4F)c3s2)cn1` (centres unmarked) [td32-4P10, 2-(4-(7-(2-fluoro-4-(1-((4-fluorophenyl)carbamoyl)cyclopropane-1-carboxamide)phenoxy)thieno[3,2-b]pyridin-2-yl)-1H-pyrazolyl-1-yl)ethyl valinate], the “T/C (%)” value in the series with H358 stood at 6.6%; in the series on MV-4-11, 3.4%; in the series with H82, 11%. Besides, the figures for the “TGI (%)” value in the series with H358, in the series with MV-4-11 and in the series on H82 were 112%, 109% and 92%, respectively. The “tumor inhibitory effect (tumor volume)” value in [4] is given as “potent tumor inhibitory effect”. In [5], the “Water solubility test Result” value was “C (1 g of solute is soluble in 10~30 mL of sovent)”. Further, the “time to almost complete conversion into td32-4 in vivo” value in [6] was not above 18 h.

In the case of `CCC(C)C(N)C(=O)OCCn1cc(-c2cc3nccc(Oc4ccc(NC(=O)C5(C(=O)Nc6ccc(F)cc6)CC5)cc4F)c3s2)cn1` (centres unmarked) [td32-4P9, 2-(4-(7-(2-fluoro-4-(1-(4-fluorophenyl)carbamoyl)cyclopropane-1-carboxamide)phenoxy)thieno[3,2-b]pyridin-2-yl)-1H-pyrazolyl-1-yl)ethyl isoleucinate], in [4], the “tumor inhibitory effect (tumor volume)” value is “potent tumor inhibitory effect”. The “Water solubility test Result” value in series [5] is listed as “D (1 g of solute is soluble in 30~100 mL of sovent)”.

Values taken from US12391706B2, “Multi-target tyrosine kinase inhibitor” (SHENZHEN NEPTUNUS PHARMACEUTICAL RESEARCH INSTITUTE CO., …, priority 2020, dated 2025).
